Laboratory results as given in US10231980B2, “Cortexolone 17alpha-benzoate for use in the treatment of tumours” (COSMO TECHNOLOGIES LTD., priority 2014, dated 2019).

Columns and labels:
[1] = system: MiaPaca-2 pancreatic tumor xenograft; assay: Human pancreatic tumor xenograft in nude mice; format: in vivo; details: for in vivo antitumor activity compared with Cyproterone Acetate: Examples 5 and 6
Description: Cortexolone 17α-benzoate and Cyproterone Acetate were separately diluted in DMSO/2-hydroxypropyl β-cyclodextrin (vehicle).
The test was carried out comparing the anti-tumor activity of cortexolone 17α-benzoate at two different dosages (8.0 mg/kg, corresponding approximately at 230 μM, and 40 mg/kg, corresponding approximately at 1150 μM), versus the vehicle (i.e. 0.4% (v/v) tween 80 and 0.5% (w/v) carboxymethylcellulose in normal saline) and versus the comparator Cyproterone Acetate at two different dosages (7.4 mg/kg and 37 mg/kg).
1×10^6 MiaPaca-2 cells suspended in matrigel were sub-cutaneously injected into 6 week old athymic nude mice.
The treatment with the tested compounds, with the vehicle and with the comparative compound, was initiated after the tumor volume has reached 50 mm^3 after transplantation. All compounds were injected 100 μL/mouse of low dose solution (approximately 230 μM) or 100 μL/mouse of high dose solution (approximately 1150 μM) of cortexolone 17α-benzoate, vehicle and Cyproterone Acetate, respectively. Compounds and controls were administered subcutaneously daily for 28 days.
Tumors were measured every 4 days with a digital caliper.
The results are plotted in FIG. 1 as average change in tumor volume relative to the start of treatment. Tumor volume was calculated according to the formula 0.5236(r1)^2(r2) where r1<r2.
Error bars are the SEM for 7 to 10 mice per treatment group. P values were calculated according to the Student's t test.
Cortexolone 17α-valerate-21-propionate and Cyproterone Acetate were separately diluted in DMSO/2-hydroxypropyl β-cyclodextrin (vehicle).
The test was carried out comparing the anti-tumor activity of cortexolone 17α-valerate-21-propionate at two different dosages (approximately 8.6 mg/kg and 43 mg/kg) versus the vehicle (i.e. 0.4% (v/v) tween 80 and 0.5% (w/v) carboxymethylcellulose in normal saline) and versus the comparator Cyproterone Acetate at two different dosages (7.4 mg/kg and 37 mg/kg).
1×10^6 MiaPaca-2 cells suspended in matrigel were subcutaneously injected into 6 week old athymic nude mice.
The treatment with the tested compound, with the vehicle and with the comparative compound was initiated after the tumor has reached a volume of 50 mm^3 after implantation, injecting subcutaneously 100 μL/mouse of low dose solution (approximately 230 μM) or 100 μL/mouse of high dose solution (approximately 1150 μM) of cortexolone 17α-valerate-21-propionate, vehicle and Cyproterone Acetate, respectively. Compounds and controls were administered subcutaneously daily for 28 days. Tumors were measured every 4 days with a digital caliper.
The results are plotted in FIG. 2 as average change in tumor volume relative to the start of treatment. Tumor volume was calculated according to the formula 0.5236(r1)^2(r2) where r1<r2.
Cyproterone acetate (CPA), a well-known anti-androgen, was used as control. Briefly 1×10^6 MiaPaca2 cells suspended in matrigel were subcutaneously (sc) injected into 6 week old male athymic nude mice. Tumors were measured every 4 days with a digital caliper. Tumor volume was calculated according to the formula: 0.5236(r1)2(r2) where r1<r2. Treatment with CB-03-06 and control compounds were initiated after the tumor had reached 50 mm^3. Compounds diluted in DMSO/2-hydroxypropyl b-cyclodextrin (vehicle) were subcutaneously injected daily (100 microL/mouse) at the concentration of 40 mg/Kg daily for 28 consecutive days.

[2] = biological target: T1, glucocorticoid receptor (GR) (Homo sapiens, UniProt P04150); assay: GR reporter antagonist assay (inhibition of Dexamethasone-induced luminescence); format: cell-based; details: inhibition of Dex-induced luminescence
T1 construct: endogenous in cells; host or cells: human kidney epithelial cells
T1 sequence (P04150 1-777): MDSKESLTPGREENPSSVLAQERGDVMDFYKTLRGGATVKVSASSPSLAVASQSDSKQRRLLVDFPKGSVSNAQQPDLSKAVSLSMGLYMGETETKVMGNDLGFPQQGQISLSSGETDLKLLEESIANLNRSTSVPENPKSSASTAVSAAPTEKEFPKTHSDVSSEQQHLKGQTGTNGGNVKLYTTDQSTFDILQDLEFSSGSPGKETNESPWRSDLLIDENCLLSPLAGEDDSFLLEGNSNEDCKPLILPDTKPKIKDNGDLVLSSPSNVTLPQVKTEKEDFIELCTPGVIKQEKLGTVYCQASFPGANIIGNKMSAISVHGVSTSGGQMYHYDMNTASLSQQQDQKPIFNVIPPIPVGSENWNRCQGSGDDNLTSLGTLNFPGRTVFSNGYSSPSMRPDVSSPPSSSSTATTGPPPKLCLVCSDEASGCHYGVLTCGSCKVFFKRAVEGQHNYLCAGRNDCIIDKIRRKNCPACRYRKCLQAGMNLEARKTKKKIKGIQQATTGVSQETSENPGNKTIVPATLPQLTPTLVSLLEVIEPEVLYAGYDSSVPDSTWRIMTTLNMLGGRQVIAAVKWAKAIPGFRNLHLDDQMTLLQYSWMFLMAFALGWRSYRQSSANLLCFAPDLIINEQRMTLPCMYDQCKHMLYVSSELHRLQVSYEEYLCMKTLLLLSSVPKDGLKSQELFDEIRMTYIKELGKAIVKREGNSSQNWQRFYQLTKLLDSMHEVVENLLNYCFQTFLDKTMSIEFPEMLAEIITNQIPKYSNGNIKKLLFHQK
Description: The androgen and glucocorticoid hormones elicit divergent and often opposing effects in cells, tissues, and animals. […] CB-03-06 GR antagonist and agonist activities were tested on an in vitro assay. Briefly, human kidney epithelial cells were transfected with DNA construct containing GR binding sites linked to luminescent based reporter molecule. After 24 hours, cells were treated under antagonist or agonist modes. After an additional 24 hours, luminescence which is proportional to GR agonist transcriptional activity was quantitated.
Antagonist Assay was based on inhibition of luminescence induced by Dexamethasone (Dex).
The antagonist activity of CB-03-06 was compared to a known GR antagonist, Mifepristone (also called RU486) as shown in FIG. 7.

[3] = system: PSA secretion from LNCaP cells; assay: PSA secretion Elisa; format: cell-based; details: Homo sapiens, 48 h, read-out: inhibition of PSA secretion IC50
Description: Prostate-specific antigen, or PSA, is a protein produced by cells of the prostate gland. The PSA test measures the level of PSA in a person's blood. The blood level of PSA is often elevated in men with prostate cancer and it used as surrogate marker to test prostate cancer progression in human population. […] LNCaP cells were seeded in 96-well flat bottom culture plates in media containing charcoal stripped serum with or without 10 nM DHT. […] After 48 hours incubation with test compounds, supernatants were harvested and tested with an Elisa assay for PSA and the same cells were lysed for cell viability assessment.

[4] = In vivo pharmacokinetics in plasma; details: mice; for AUC: mouse, plasma
Description: The pharmacokinetic of CB-03-06 was evaluated in plasma of mice after intravenous (iv), subcutaneous (SC) and oral administration (PO).
Mice (3 per group) were administered with the following doses and blood was collected at the indicated times. Plasma samples were analyzed by HPLC-MS/MS.

C[C@]12CCC(=O)C=C1CC[C@@H]1[C@@H]2CC[C@@]2(C)[C@H]1CC[C@]2(OC(=O)c1ccccc1)C(=O)CO [CB-03-06, cortexolone 17α-benzoate]
pancreatic tumor size relative to the size when treatment was initiated ([1]; Example 5, MiaPaca-2 xenograft, nude mice, SC daily 28 days, high dose of cortexolone 17α-benzoate (40 mg/kg)): less than 5 fold
pancreatic tumor size relative to the initial size ([1]; Example 22, MiaPaca2 xenograft, male nude mice, 40 mg/Kg SC daily 28 days, treatment period): less than 5 fold
Median survival ([1]; Example 22, MiaPaca2 xenograft, 40 mg/Kg SC daily 28 days): 70 days
in vivo antitumor activity compared with Cyproterone Acetate ([1]; MiaPaca-2 xenograft): antitumor activity higher than Cyproterone Acetate
GR antagonist potency, times less than RU486 [2]: 100 times
IC50 [3]: 4 µM
body exposure relative to subcutaneous administration ([4]; intravenously): 50%
body exposure relative to subcutaneous administration ([4]; orally): 17%
AUC ([4]; PO 40 mg/kg): 276 ng·h/mL
AUC ([4]; SC 40 mg/kg): 1620 ng·h/mL
AUC ([4]; iv 20 mg/kg): 896 ng·h/mL

CCCCC(=O)O[C@]1(C(=O)COC(=O)CC)CC[C@H]2[C@@H]3CCC4=CC(=O)CC[C@]4(C)[C@H]3CC[C@@]21C [CB-03-10, cortexolone 17α-valerate-21-propionate]
pancreatic tumor size relative to the initial tumor size ([1]; Example 6, MiaPaca-2 xenograft, nude mice, SC daily 28 days, for the time of treatment): less than 5 fold
in vivo antitumor activity compared with Cyproterone Acetate ([1]; MiaPaca-2 xenograft): antitumor activity higher than Cyproterone Acetate
